From BindingDB's records for doi:10.1021/acs.jmedchem.8b00990 (China Pharmaceutical University, 2019)

Assays:
[1] = Inhibition of mouse PDL1 in mouse splenocytes assessed as rescue of splenocyte effector function
[2] = Inhibition of mouse PDL2 in mouse splenocytes assessed as rescue of splenocyte effector function

EC50 [1]: 30 nM | EC50 [2]: 40 nM
Structure (SMILES): C[C@@H](O)[C@H](NC(=O)N[C@@H](CC(N)=O)C(=O)NNC(=O)[C@@H](N)CO)C(=O)O
